Test system: APOE4 HF-C mice
Experiment: Electroretinogram (ERG) in aged APOE4 mice on high fat/cholesterol diet (murine AMD model)
Assay type: in vivo, mouse
Conditions: aged male APOE4 mice, high cholesterol diet 8 weeks, scyllo-inositol 10 mg/ml in drinking water ad libitum
From the text: The ocular pathologies of AMD may be recapitulated in a murine model by applying three physiologically relevant risk factors: specific APOE genotype (APOE4), advanced age and high fat/cholesterol-rich (HF-C) diet. These mice develop sub-retinal pigment epithelium (RPE) deposits (basal deposits), RPE atrophy and choroidal neovascularization in a temporal, non-fully penetrant manner that is analogous to human AMD progression [Malek, G., et al., (2005), Proc Natl Acad Sci USA 102, 11900-5]. An electrophysiological phenotype is associated with this pathology. […] The ability of scyllo-inositol (AZD-103/ELN005) to prevent retina/RPE damage, the buildup of basal deposits and attenuation of the ERG was evaluated.
Aged male APOE4 mice housed conventionally, under ambient conditions maintained on water ad libitum and normal mouse chow (normal diet or ND), were assigned to three treatment groups. This assignment was random, although the ages of the animals were balanced across the groups. One group was maintained on the normal diet. The second group was switched to a high fat cholesterol (HFC) diet (35% fat, 20% protein, 45% carbohydrates, 1.25% cholesterol, 0.5% sodium cholate) for 8 weeks. The third group received scyllo-inositol (AZD-103/ELN005) ad libitum (dissolved in drinking water at 10 mg/ml) for 7 days. They were then switched to the HF-C diet for 8 weeks, during which time they continued to receive scyllo-inositol (AZD-103/ELN005) ad libitum. […] ERG tracings were recorded using a platinum iridium wire loop electrode placed in contact with the eye along with a drop of 2.5% hydroxypropyl methylcellulose. […] The a-wave amplitude was measured from baseline to the a-wave trough, and the b-wave amplitude was measured from the a-wave trough to the b-wave peak. • 4. […] Quantitation of photoreceptors. […] The thickness of outer nuclear layer and the linear density of photoreceptor will be calculated. […]
After 8 weeks, animals were assessed by electroretinogram. […] The electrophysiological response to these flashes was recorded by an electrode touching the surface of the eye. […]

Substance: scyllo-inositol [scyllo-inositol (AZD-103/ELN005)]
- a-wave amplitude (ERG): consistent
- retinal function as demonstrated by ERGs: prevented the retinal defect that was caused by high cholesterol diet
- scotopic b-wave amplitude (ERG) (all flash intensities, compared with normal diet controls): virtually indistinguishable from the normal diet control animals
